Paper PMC8707700, “Ru(III) Complexes with Lonidamine-Modified Ligands” (International Journal of Molecular Sciences, 2021)
Like-named read-outs stand apart in the source and are kept apart here.

Tests used:
[1] = tested on: MCF-7 breast carcinoma cells; test: Cellular ruthenium accumulation by atomic absorption spectrometry; assay type: cell-based; conditions: MCF-7, 20 μM
Procedure: The cellular accumulation of ruthenium complexes was studied by atomic absorption spectrometry. The MCF-7 breast carcinoma cells were incubated with 16 and 20 for 1–24 h in DMEM with or without fetal bovine serum to reduce the binding of complexes with proteins. The accumulation was dependent on the linker’s length. […] The ruthenium complex entered the cells relatively fast; by 4 h, no notable further increase of the Ru content was observed (Figure 6). […] The negative effect of serum on the cellular Ru accumulation has been reported for other ruthenium species; however, significant effects were detectable only after longer exposure (24 h).
The intracellular accumulation of metal-containing compounds was determined as described. […]
For metal and protein quantification, pellets were resuspended in 250 µL of deionised water and lysed for 30 min with sonication. The protein content in lysates was determined by the Bradford method. […] Drying steps were adjusted, the atomisation temperature was set to 2400 °C, and the reading time was increased to 7 s. Ruthenium was quantified at 349.8945 nm. The mean integrated absorbance of triple injections was used throughout the measurements. Results (average of the two experiments) were expressed as nmol metal/mg protein.

[2] = biological target: T1, isolated rat TrxR1 (rat liver TrxR) (Rattus norvegicus, UniProt O89049); test: Inhibition of purified TrxR (DTNB reduction); assay type: biochemical; conditions: isolated enzyme, 75 min 37 °C preincubation; mean ± SD, three measurements
T1 construct: Commercially available rat liver TrxR; purchased Sigma Aldrich; host or cells: rat liver
T1 sequence (O89049 1-499): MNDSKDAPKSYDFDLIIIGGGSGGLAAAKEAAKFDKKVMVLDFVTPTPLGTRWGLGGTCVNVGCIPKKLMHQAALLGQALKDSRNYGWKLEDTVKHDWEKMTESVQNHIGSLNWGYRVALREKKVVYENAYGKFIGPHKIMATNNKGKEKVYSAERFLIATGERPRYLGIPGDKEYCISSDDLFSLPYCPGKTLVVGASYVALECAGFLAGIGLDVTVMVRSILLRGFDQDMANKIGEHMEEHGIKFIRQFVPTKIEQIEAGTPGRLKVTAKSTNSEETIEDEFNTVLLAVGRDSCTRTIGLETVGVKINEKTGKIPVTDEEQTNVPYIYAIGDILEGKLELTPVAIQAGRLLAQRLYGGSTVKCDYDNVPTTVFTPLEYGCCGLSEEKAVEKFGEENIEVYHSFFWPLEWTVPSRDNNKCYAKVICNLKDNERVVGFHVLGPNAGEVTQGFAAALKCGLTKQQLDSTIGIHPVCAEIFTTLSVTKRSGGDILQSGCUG
Procedure: The activity of TrxR [40, 54] was determined in a microplate format. Commercially available rat liver TrxR (Sigma Aldrich, St. Louis, MO, USA) was diluted with distilled water to 3.5 Unit/mL. In total, 25 μL aliquots of this solution were mixed with 25 μL of a potassium phosphate buffer, pH 7.0, with or without tested compounds. Fifty µL of 0.5% v/v dimethyl formamide in buffer was served as a blank. […] For this purpose, 25 µL of the highest test concentration of each compound and 25 µL of phosphate buffer (no enzyme) were mixed. Samples were incubated with moderate shaking for 75 min at 37 °C in a 96-well plate. To each well, 225 μL of the reaction mixture (500 μL of potassium phosphate buffer, pH 7.0, 80 μL of 100 mM ethylenediaminetetraacetic acid (EDTA), 20 μL of 0.2% bovine serum albumin, 100 μL of 20 mM NADPH (nicotinamide adenine dinucleotide phosphate), and 300 μL of water) was added; the reaction was initiated by the addition of 25 μL of 20 mM DTNB (5,5′-dithiobis(2-nitrobenzoic acid)) solution in ethanol. The formation of 5-TNB was monitored at 405 nm 10 times at 35 s intervals by a VICTOR X4 Plate Reader (Perkin Elmer). […] IC50 values were calculated as the concentration of the compound that decreased the enzymatic activity of the control (no compound) by 50%. Values are mean ± SD of the three independent measurements.

[3] = biological target: T2, TrxR1 in rat liver extracts (Rattus norvegicus, UniProt O89049); test: Inhibition of TrxR1 in rat liver extracts; assay type: biochemical; conditions: for mechanism of inhibition: efficacy independent of DTNB concentration; for Ki: estimated according to the Cheng–Prusoff equation, read-out: Ki (inhibition constant); for IC50: rat liver extracts, read-out: TrxR1 IC50, µM (95% C.I.)
T2 construct: measured in the extracts from the liver of male white outbred rats; from tissue; host or cells: liver of male white outbred rats (homogenate supernatant)
T2 sequence (O89049 1-499): T1 sequence (O89049 1-499)
Procedure: The TrxR1 enzyme was measured in the extracts from the liver of male white outbred rats homogenised in 50 mM of PBS containing 1 mM of EDTA and centrifuged for 15 min at 10,000 rpm at 4 °C. The supernatant was adjusted to 7.5 µg/mL of protein as determined with pyrogallol red. Then, 40 μL of the enzyme solution was mixed with 10 μL of the test compounds in a 96-well clear flat bottom plate. After 10 min at 25 °C, 30 μL of PBS containing 0.7 mg/mL of BSA and 0.8 mM of NADPH was added. After 15 min at 25 °C, 20 µL of DTNB solution was added to the desired final concentrations. Kinetic studies were carried out by assaying TrxR1 at various concentrations of DTNB. The optical density of the samples was measured with an Infinite M200 Pro reader (Tecan, Grödig, Austria) at 412 nm every 30 s for 20 min. The activity of TrxR1 was calculated as a reaction slope relative to the control wells using Prism 8.0 (GraphPad, Inc., San Diego, CA, USA).

Substance	cellular Ru accumulation with serum in the culture medium ([1]; serum present)	IC50 [2]	mechanism of inhibition [3]	Ki [3]	IC50 ([3]; DTNB 0.06 mM)	IC50 ([3]; DTNB 0.1 mM)	IC50 ([3]; DTNB 2.5 mM)	cellular Ru accumulation ([1]; 1–24 h)
Na[trans-Ru(DMSO)(C21H19Cl2N5O)Cl4] [Compound 16]	only very low uptake	20.4 ± 0.1 µM	non-competitive	30.7 µM	24 µM	33 µM	33 µM	–
Na[trans-Ru(DMSO)(C30H37Cl2N5O)Cl4] [Compound 20]	–	8.5 ± 0.3 µM	non-competitive	15.3 µM	17 µM	15 µM	15 µM	accumulated more readily than 16
